Laboratory results as given in patent publication US5070210A, “Novel ketenimines as intermediates for insecticides” (ICI Americas Inc., priority 1990, dated 1991).

Tests used:
Assay type in all cases: in vivo
[1] = tested on: Housefly [Musca domestica]; test: Housefly insecticidal test; settings: μg per 25 female flies; mortality after 48 hours
Outline: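 Residual contact test: acetone dilution, 0.01% peanut oil spreader, solvent evaporated; 25 ♀ flies (1-2 d old) per cage; sugar-water plug; 48 h mortality read. LC50 in μg/25 female flies, from dose-mortality curves; top dose 100 μg/25 flies.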

[2] = tested on: Tobacco Budworm [Heliothis virescens (Fabricius)] larvae; test: Tobacco budworm contact test; settings: second-instar larvae, percent in solution, 5 days
Procedure: (§1) The compounds in Tables 1 and 2 above were tested for insecticidal activity using the following testing procedures. LC50 values, based on the results of these tests and calculated according to dosage-mortality curves, are expressed in Table 3.
Tobacco Budworm [Heliothis virescens (Fabricius)]:
(a) Contact: Test compounds were diluted in a 50-50 acetone-water solution. Cotton (Gossypium sp.) cotyledons were immersed in the test solutions for 2-3 seconds and placed on a wire screen to dry. The dried leaves were placed in petri dishes containing a moistened piece of filter paper and infested with 5 second-instar tobacco budworm larvae. The dishes were placed in a high humidity chamber for 5 days, and percent mortality of the larvae recorded. Test concentrations ranged from 0.1% downward. The LC-50 values are expressed below in Table 3 under the heading "TBW-C" in terms of percent of the test compound in the solution.

[3] = tested on: Tobacco Budworm [Heliothis virescens (Fabricius)] eggs; test: Tobacco budworm egg test; settings: 2-day old eggs, percent in solution
Outline: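 Mortality of dipped eggs served as read-out, recorded after untreated controls hatched and began feeding. Treatments used acetone solutions from 0.1% downward, with eggs incubated at 78° F; LC50 is expressed as percent of compound in the solution.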

[4] = tested on: Beet Armyworm (Spodoptera exigua); test: Beet armyworm insecticidal test; settings: second-instar larvae, percent in solution; five days
Procedure: as §1
Beet Armyworm (Spodoptera exigua):
Test compounds were diluted in a 50-50 acetone-water solution. Young leaves of sugar beets (Beta vulgaris) were immersed in the test solutions for 2-3 seconds and placed on a wire screen to dry. The dried leaves were placed in petri dishes containing a moistened filter paper and infested with five second-instar beet armyworm larvae. The dishes were placed in a high humidity chamber. Mortality of the larvae was recorded five days later. Test concentrations ranged from 0.1% downward. The LC-50 values are expressed below in Table 3 under the heading "BAW" in terms of percent of the test compound in solution.

[5] = tested on: Cabbage Looper [Trichoplusia ni (Hubner)]; test: Cabbage looper insecticidal test; settings: second-instar larvae, percent in solution; 3-5 days
Outline: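 Steps: dilute compound in 50-50 acetone-water from 0.1% downward; immerse cotyledon pieces 2-3 s and dry; place in humid petri dishes with five second-instar larvae; record mortality at 3-5 days. Dosage-mortality curves yield LC50 as percent in solution.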

[6] = tested on: Aster Leafhopper [Macrosteles fascifrens (Stal)]; test: Aster leafhopper insecticidal test; settings: adults/nymphs, percent in solution; 48 hours
Outline: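 Three ~10 cm oat seedlings per cup were dipped 2-3 seconds in 50-50 acetone-water compound solutions, dried, and caged with ten adult/nymph leafhoppers. Mortality was counted after 48 hours at concentrations from 0.05% downward. LC50, as percent compound in solution, came from dosage-mortality curves.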

[7] = tested on: Maize weevil [Sitophilus Zeamais (Motschulsky)]; test: Maize weevil insecticidal test; settings: adult weevils, percent in solution; 48 hours
Outline: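 LC50, in percent of compound in solution, was derived from dosage-mortality curves after 48 h at about 25 °C. Ten adult weevils per container fed on four corn seeds briefly immersed in acetone:water (50:50) solutions of up to 0.01% and dried.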

Structure (SMILES)	LC50, HF [1] [µg]	LC50, TBW, C (TBW-C) [2] [%]	LC50, TBW, E (TBW-E) [3] [%]	LC50, BAW [4] [%]	LC50, CL [5] [%]	LC50, LH [6] [%]	LC50, MW [7] [%]
CC(C)C(=Nc1ccc(F)c(F)c1)OCc1cccc(Oc2ccccc2)c1 [Compound 54]	3.5	0.001	0.017	0.004	0.0003	0.00015	
CC(C)C(=Nc1ccc(F)cc1F)OCc1cccc(Oc2ccccc2)c1 [Compound 52]	8	0.004	> 0.05	0.01	0.0025	0.001	
CC(C)C(=Nc1ccc2c(c1)OC(C)(C)O2)OCc1ccc(F)c(Oc2ccc(F)cc2)c1 [Compound 283]	23	0.0009	0.016	0.0013	0.00009		> 0.01
CC(C)C(=Nc1ccc2c(c1)OC(F)(F)O2)OCc1cccc(Oc2ccc(Cl)cc2)c1 [Compound 450]	72	0.0001	0.015	0.005	0.00016		0.01
CC(C)C(=Nc1ccc(Cl)c(Cl)c1)OCc1cccc(Oc2ccccc2)c1 [Compound 14]	40			0.005	0.004	0.001	0.01
CC(C)C(=Nc1cccc(C(F)(F)F)c1)OCc1cccc(Oc2ccccc2)c1 [Compound 67]	15		0.01	0.006	0.001	0.00027	
Cc1c(Cl)cccc1N=C(OCc1cccc(Oc2ccccc2)c1)C(Cl)Cl [Compound 97]	10	0.004	0.04	0.01	0.002		
CC(C)C(=Nc1ccc(F)c(I)c1)OCc1ccc(F)c(Oc2ccc(Cl)cc2)c1 [Compound 326]	25	0.0005	0.03	0.004	0.00015		
CC(C)C(=Nc1ccc(F)c(Cl)c1)OCc1cccc(Oc2ccc(Cl)cc2)n1 [Compound 463]	8		0.0075	0.0024	0.00009	0.0003	0.01
CC(C)C(=Nc1ccc(F)cc1)OCc1ccc(F)c(Oc2ccccc2)c1 [Compound 53]	2	0.0025	0.02	0.003	0.0005		
CCC(C)C(=Nc1ccc(F)c(Cl)c1)OCc1cccc(Oc2ccccc2)c1 (stereo not shown) [Compound 122]	37		0.05	0.01	0.0007	> 0.05	> 0.01
CC(C)C(=Nc1ccc(Br)c(F)c1)OCc1ccc(F)c(Oc2ccc(F)cc2)c1 [Compound 282]	16	0.0007	0.02	0.0025	0.00007		0.008
CC(C)C(=Nc1ccc(F)c(Cl)c1F)OCc1cccc(Oc2ccccc2)c1 [Compound 332]	7	0.00075	0.015	0.0012	0.00045		
CC(C)C(=Nc1ccc(I)cc1)OCc1ccc(F)c(Oc2ccc(F)cc2)c1 [Compound 335]	34	0.00025	0.05	> 0.1	0.00027		> 0.01
Cc1ccc(N=C(OCc2cccc(Oc3ccccc3)c2)C(Cl)Cl)cc1 [Compound 139]	4.2	0.005	0.05	0.007	0.015		
CC(C)C(=Nc1ccc(F)c(Cl)c1)OCc1cc(Oc2ccc(F)cc2)c(F)cc1F [Compound 343]	40	0.00025	> 0.1	> 0.1	0.00027		> 0.01
CC(C)C(=Nc1ccc(Cl)cc1)OCc1ccc(F)c(Oc2ccccc2)c1 [Compound 23]	5		0.017	0.001	0.0005		
CC(C)C(=Nc1ccc(F)cc1)OCc1cccc(Oc2ccccc2)c1 [Compound 46]	7		0.016	0.006	0.003	0.002	
CC(C)C(=Nc1ccc(Br)cc1)OCc1ccc(F)c(Oc2ccc(F)cc2)c1 [Compound 333]	15	0.00075	0.025	> 0.1	0.00024		> 0.01
O=[N+]([O-])c1ccc(N=C(OCc2cccc(Oc3ccccc3)c2)C(Cl)Cl)cc1 [Compound 173]	18	> 0.1	> 0.1	> 0.1	0.02		
CC(C)C(=Nc1cccc(Cl)c1)OCc1cccc(Oc2ccccc2)c1 [Compound 7]	8		0.009	0.006	0.006	0.0002	
CC(C)C(=Nc1ccc(F)c(Cl)c1F)OCc1cccc(Oc2ccc(Cl)cc2)n1 [Compound 500]	16	0.00075	0.02	0.002	0.00009		
Clc1ccccc1N=C(OCc1cccc(Oc2ccccc2)c1)C(Cl)Cl [Compound 34]	> 100	0.01	> 0.1	0.015	0.015		
